According to US5865792A, “Reduction of skin irritation during electrotransport delivery” (priority 1997, dated 1999):

How the values were obtained:
skin [1] = assay: skin irritation (α), electrotransport of placebo drug (sodium chloride), hydrocortisone in the cathodic reservoir (Example IV); assay type: in vivo
Source text: In vivo electrically assisted delivery of a placebo drug (sodium chloride) with various liquid solvents was accomplished both with and without co-delivery of an anti-inflammatory agent (hydrocortisone) using electrotransport systems substantially similar to those described in Example II. Four different electrotransport system configurations were constructed.
The anode material used in each of the systems was silver foil and the cathode material used in each of the systems was silver chloride. The size of the gels and the applied current levels were the same as in Example II.

human skin [2] = assay: skin irritation (α), electrotransport of placebo drug (sodium chloride) in 50% propylene glycol with and without hydrocortisone (Example V); assay type: in vivo, human volunteer; details: FIG. 8; 0.5% (w/v) hydrocortisone in 50% propylene glycol, cathodic and anodic reservoirs; 100 μA/cm^2, 3 h
Protocol: In vivo electrically assisted delivery of a placebo drug (sodium chloride), with a liquid solvent in which hydrocortisone has good solubility, was accomplished both with and without co-delivery of hydrocortisone using electrotransport systems substantially similar to those described in Example II, and having anodic/cathodic reservoir gels of the following formulations: […]
An electrotransport system was constructed having anodic and cathodic reservoirs comprised of 350 μl of gel formulation I. This system was applied on the left forearm of a human volunteer. The skin contact area of each electrode gel was 2 cm^2. The anode material used in the systems was silver foil and the cathode material used in each of the systems was silver chloride. The electrodes were connected to a galvanostat preset to deliver a constant current of 100 μA/cm^2. Simultaneously another electrotransport system with similar size and current density, but whose anodic and cathodic reservoirs were comprised of 350 μl of gel formulation II was applied on the right forearm of the same volunteer. The systems were worn for 3 hours. After removal, skin irritation (α) was monitored using the Minolta Chroma Meter.

human skin [3] = system: human skin
skin [4] = details: prolonged exposure; cited from earlier work
skin [5] = details: otherwise equivalent reservoirs; cited from earlier work
[6] = metoclopramide blood plasma concentrations during/after electrotransport delivery with and without hydrocortisone (HPLC); assay type: in vivo, human volunteers; details: FIG. 3; 10% MCP, 0.5% HC in anodic reservoir vs MCP alone; 100 μA/cm^2, 4 h
Source text: MCP is a water soluble drug salt.

[7] = water; cited from earlier work

Row | Compound | reduction of erythema of the skin in contact with the cathodic reservoir (skin [1]; 0.25 mg/mL hydrocortisone in water) | reddening of the skin in contact with the cathodic reservoir (skin [1]; FIG. 7, system 1: 5 mg/mL hydrocortisone, 40% ethanol, vs 40% ethanol without hydrocortisone) | erythema values, System 3 vs System 4 (skin [1]; System 3: 0.25 mg/mL hydrocortisone in water, no ethanol) | erythema compared to reservoirs containing no hydrocortisone (human skin [2]) | skin irritation (α) vs. anodic reservoirs containing no hydrocortisone (human skin [3]; FIG. 2, 0.5% HC with 10% MCP in anodic reservoir, 4 h wear, 1, 4, 24, 48 h after removal) | local side effects such as skin thinning (skin [4]) | electroosmotic flux from a cathodic reservoir vs. equivalent anodic reservoir (skin [5]) | effect of addition of hydrocortisone on delivery of metoclopramide into the bloodstream [6] | skin irritation caused by the drug (human skin [3]; in vivo) | solubility in words [7]
1 | C[C@]12CCC(=O)C=C1CC[C@@H]1[C@@H]2C(O)C[C@@]2(C)[C@H]1CC[C@]2(O)C(=O)CO (stereo partly shown) [hydrocortisone, 11,17,21-trihydroxypregn-4-ene-3,20-dione] | insufficient to reduce erythema | significant reduction in the reddening of the skin | substantially the same (i.e., at most only about one α unit apart) | substantially less erythema | less skin irritation | does not result in unacceptable local side effects such as skin thinning | substantially lower | – | – | –
2 | CCN(CC)CCNC(=O)c1cc(Cl)c(N)cc1OC [metoclopramide HCI] | – | – | – | – | – | – | – | does not significantly affect the delivery of metoclopramide into the bloodstream | skin irritating drug | water soluble
